Our source for the Efficacy in % and chromatographic logP values is patent publication US7799739B2, “Biphenylcarboxamides for controlling micro-organisms” (Bayer CropScience AG, priority 2005, dated 2010).

Structures are written as SMILES.

As a reminder, the chromatographic logP is a lipophilicity value derived from retention on a column. A low value points to lower lipophilicity.

One series relates to Venturia inaequalis. Put plainly: Venturia test (apple)/protective. Format: in vivo. The conditions noted are these: apple plants, protective spray, application rate 100 ppm, evaluation 10 days after inoculation. As to the method:
(§1) To produce a suitable preparation of active compound, 1 part by weight of active compound is mixed with the stated amounts of solvents and emulsifier, and the concentrate is diluted with water to the desired concentration.
To test for protective activity, young plants are sprayed with the active compound preparation at the stated application rate. After the spray coating has dried on, the plants are inoculated with an aqueous conidia suspension of the apple scab pathogen Venturia inaequalis and then remain in an incubation cabin at about 20° C. and 100% relative atmospheric humidity for 1 day. The plants are then placed in a greenhouse at about 21° C. and a relative atmospheric humidity of about 90%.
(§2) Evaluation is carried out 10 days after the inoculation. 0% means an efficacy which corresponds to that of the control, whereas an efficacy of 100% means that no infection is observed.

The next series has as its system Puccinia recondita. Put plainly: Puccinia test (wheat)/protective. In kind it is in vivo. Conditions: wheat plants, protective spray, application rate 1000 ppm, evaluation 10 days after inoculation. On the procedure: To produce a suitable preparation of active compound, 1 part by weight of active compound is mixed with the stated amounts of solvent and emulsifier, and the concentrate is diluted with water to the desired concentration.
To test for protective activity, young plants are sprayed with the active compound preparation at the stated application rate. After the spray coating has dried on, the plants are sprayed with a conidia suspension of Puccinia recondita. The plants remain in an incubation cabin at 20° C. and 100% relative atmospheric humidity for 48 hours.
The plants are then placed in a greenhouse at a temperature of about 20° C. and a relative atmospheric humidity of 80% to promote the development of rust pustules.
as §2

The test system of a further series is Uromyces appendiculatus. The experiment in a line: Uromyces test (bean)/protective. In kind it is in vivo. Conditions: bean plants, protective spray, application rate 100 ppm, evaluation 10 days after inoculation. As to the method: as §1
To test for protective activity, young plants are sprayed with the active compound preparation at the stated application rate. After the spray coating has dried on, the plants are inoculated with an aqueous spore suspension of the bean rust pathogen Uromyces appendiculatus and then remain in an incubation cabin at about 20° C. and 100% relative atmospheric humidity for 1 day. The plants are then placed in a greenhouse at about 21° C. and a relative atmospheric humidity of about 90%.
as §2

The next series relates to Botrytis cinerea. The experiment in a line: Botrytis test (bean)/protective. Format: in vivo. The conditions noted are these: bean plants, protective spray, application rate 100 ppm, evaluation 2 days after inoculation. On the procedure: as §1
To test for protective activity, young plants are sprayed with the active compound preparation at the stated application rate. After the spray coating has dried on, 2 small pieces of agar colonized by Botrytis cinerea are placed onto each leaf. The inoculated plants are placed in a dark chamber at about 20° C. and 100% relative atmospheric humidity.
The size of the infected areas on the leaves is evaluated 2 days after the inoculation. 0% means an efficacy which corresponds to that of the control, whereas an efficacy of 100% means that no infection is observed.

Series [1] in a line: logP determination by HPLC on reverse-phase column (C 18), EEC Directive 79/831 Annex V.A8. Format: physicochemical. Conditions: reverse-phase HPLC column (C 18), pH 2.3, HPLC, 0.1% aqueous phosphoric acid/acetonitrile, 43° C. As to the method:
The logP values given in the Tables and Preparation Examples above are determined in accordance with EEC Directive 79/831 Annex V.A8 by HPLC (High Performance Liquid Chromatography) on a reverse-phase column (C 18). Temperature: 43° C.
The determination is carried out in the acidic range at pH 2.3 using the mobile phases 0.1% aqueous phosphoric acid and acetonitrile; linear gradient from 10% acetonitrile to 90% acetonitrile.
Calibration is carried out using unbranched alkan-2-ones (having 3 to 16 carbon atoms) with known logP values (determination of the logP values by the retention times using linear interpolation between two successive alkanones).

`COC(=O)c1ccc(-c2cc(F)ccc2NC(=O)c2cn(C)nc2C(F)F)cc1F` [drawing 30] registered an Efficacy in % in the series with Venturia inaequalis of 71%.

`COC(=O)c1ccc(-c2cc(F)ccc2NC(=O)c2cn(C)nc2C(F)F)cc1F` [drawing 35] came in with an Efficacy in % in the series on Puccinia recondita of 90%.

The compound `COC(=O)c1ccc(-c2cc(F)ccc2NC(=O)c2cn(C)nc2C(F)F)cc1F` [drawing 33] displayed an Efficacy in % in the series with Uromyces appendiculatus of 78%.

The compound `COC(=O)c1ccc(-c2cc(F)ccc2NC(=O)c2cn(C)nc2C(F)(F)F)cc1F` [drawing 32] came in with an Efficacy in % in the series with Uromyces appendiculatus of 93%.

Turning to `COC(=O)c1ccc(-c2cc(F)ccc2NC(=O)c2cn(C)nc2C(F)(F)F)cc1F` [drawing 34], the Efficacy in % in the series with Puccinia recondita amounted to 100%.

With `COC(=O)c1ccc(-c2cc(F)ccc2NC(=O)c2cn(C)nc2C(F)(F)F)cc1F` [drawing 31], in the series with Botrytis cinerea, the Efficacy in % was found to be 78%.

In series [1] (compounds of formula (I)), `COC(=O)c1ccc(-c2cc(F)ccc2NC(=O)c2cn(C)nc2C(F)(F)F)cc1F` [No. 1, methyl 3,5′-difluoro-2′-({[1-methyl-3-(trifluoromethyl)-1H-pyrazol-4-yl]carbonyl}amino)biphenyl-4-carboxylate] gave a chromatographic logP of 2.64.

In series [1] (starting materials of formula (III)), `COC(=O)c1ccc(-c2cc(F)ccc2N)cc1F` [No. 9 (III), methyl 2′-amino-3,5′-difluorobiphenyl-4-carboxylate] had a chromatographic logP of 2.73.
